From ChEMBL document CHEMBL1135129, “N-Tetrahydrofuroyl-(L)-phenylalanine derivatives as potent VLA-4 antagonists” (Bioorg Med Chem Lett, 2002)

Assays:
Integrin alpha-4/beta-1 [1] = target: T1, Integrin alpha-4/beta-1 (Homo sapiens, UniProt P05556+P13612); assay: Inhibition of very late antigen-4 alpha4-beta1 (VLA-4), I-VCAM-Ig as radioligand; format: protein-complex assay
[2] = Oral bioavailability in rat (Sprague-Dawley) (dose 1 mg/kg i.v.); format: ADME, organism-based; conditions: in vivo
[3] = Oral bioavailability in rat (Sprague-Dawley) (dose 2 mg/kg); format: ADME, organism-based; conditions: in vivo
[4] = Oral bioavailability in rat (Sprague-Dawley); format: ADME, organism-based; conditions: in vivo
Integrin alpha-4/beta-1 [5] = target: T1, Integrin alpha-4/beta-1; assay: Inhibition of I-VCAM-Ig binding to Very late antigen 4 (VLA-4); format: protein-complex assay

T1 sequence (P05556 whole entry): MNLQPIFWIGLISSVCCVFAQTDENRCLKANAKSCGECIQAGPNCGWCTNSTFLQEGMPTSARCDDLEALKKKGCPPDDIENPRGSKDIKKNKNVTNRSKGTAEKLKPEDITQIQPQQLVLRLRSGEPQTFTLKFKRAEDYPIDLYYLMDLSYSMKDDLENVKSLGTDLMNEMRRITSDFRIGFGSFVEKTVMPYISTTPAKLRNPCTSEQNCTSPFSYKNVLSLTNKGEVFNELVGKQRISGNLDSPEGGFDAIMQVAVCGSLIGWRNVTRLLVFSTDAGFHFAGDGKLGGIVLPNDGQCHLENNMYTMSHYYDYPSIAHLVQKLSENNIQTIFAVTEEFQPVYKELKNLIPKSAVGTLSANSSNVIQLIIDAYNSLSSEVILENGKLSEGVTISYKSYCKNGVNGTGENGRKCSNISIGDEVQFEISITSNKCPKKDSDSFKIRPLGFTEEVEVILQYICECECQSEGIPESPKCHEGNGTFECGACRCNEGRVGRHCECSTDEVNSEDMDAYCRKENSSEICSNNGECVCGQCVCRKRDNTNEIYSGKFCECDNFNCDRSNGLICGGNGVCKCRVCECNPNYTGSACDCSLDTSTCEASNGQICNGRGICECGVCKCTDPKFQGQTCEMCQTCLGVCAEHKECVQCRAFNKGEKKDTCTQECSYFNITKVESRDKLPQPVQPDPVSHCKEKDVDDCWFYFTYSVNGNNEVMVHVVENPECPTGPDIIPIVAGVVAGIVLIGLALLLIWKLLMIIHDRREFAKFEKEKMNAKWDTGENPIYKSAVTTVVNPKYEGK
T1 sequence (P13612 whole entry): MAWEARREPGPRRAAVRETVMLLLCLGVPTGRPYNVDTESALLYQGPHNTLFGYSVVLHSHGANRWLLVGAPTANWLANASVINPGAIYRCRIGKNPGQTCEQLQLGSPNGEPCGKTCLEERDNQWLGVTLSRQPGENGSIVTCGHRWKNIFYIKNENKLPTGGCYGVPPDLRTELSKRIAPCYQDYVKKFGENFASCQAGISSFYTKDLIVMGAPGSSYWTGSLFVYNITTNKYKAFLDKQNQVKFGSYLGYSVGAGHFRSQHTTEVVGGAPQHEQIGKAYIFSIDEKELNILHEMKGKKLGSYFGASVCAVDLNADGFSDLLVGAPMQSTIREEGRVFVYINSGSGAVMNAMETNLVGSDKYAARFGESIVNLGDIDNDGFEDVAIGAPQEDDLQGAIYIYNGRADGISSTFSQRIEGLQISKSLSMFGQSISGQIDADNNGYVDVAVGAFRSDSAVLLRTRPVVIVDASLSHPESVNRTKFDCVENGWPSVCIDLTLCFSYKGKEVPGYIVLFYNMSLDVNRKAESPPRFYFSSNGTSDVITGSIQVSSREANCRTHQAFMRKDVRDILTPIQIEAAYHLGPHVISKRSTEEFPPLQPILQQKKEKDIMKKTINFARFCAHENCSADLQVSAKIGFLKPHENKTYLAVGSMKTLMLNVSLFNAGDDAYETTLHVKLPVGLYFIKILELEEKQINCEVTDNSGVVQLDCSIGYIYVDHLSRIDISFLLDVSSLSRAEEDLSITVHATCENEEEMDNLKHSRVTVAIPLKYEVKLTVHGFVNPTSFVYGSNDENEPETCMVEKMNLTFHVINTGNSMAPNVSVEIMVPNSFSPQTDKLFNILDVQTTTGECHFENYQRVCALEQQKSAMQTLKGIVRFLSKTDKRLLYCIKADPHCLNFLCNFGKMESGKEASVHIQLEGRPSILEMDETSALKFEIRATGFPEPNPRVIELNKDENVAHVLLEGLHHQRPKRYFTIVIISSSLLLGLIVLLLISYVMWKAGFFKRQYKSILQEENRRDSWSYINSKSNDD

Row | Compound | IC50 (Integrin alpha-4/beta-1 [1]) [nM] | also measured
1 | C[C@]1(C(=O)N[C@@H](Cc2ccc(-n3ccccc3=O)cc2)C(=O)O)CCCO1 | 12.9 | bioavailability [2]: 27%; bioavailability [3]: 27%
2 | COc1ccccc1-c1ccc(C[C@H](NC(=O)N2CCCC2)C(=O)O)cc1 | 17 | –
3 | COc1ccccc1-c1ccc(C[C@H](NC(=O)C2CCCCO2)C(=O)O)cc1 (stereo partly specified) | 4.9 | –
4 | COc1ccccc1-c1ccc(C[C@H](NC(=O)C2CCOC2)C(=O)O)cc1 (stereo partly specified) | 36 | –
5 | COc1ccccc1-c1ccc(C[C@H](NC(=O)[C@@]2(C)CCCO2)C(=O)O)cc1 | – | IC50 (Integrin alpha-4/beta-1 [5]): 13.7 nM
6 | COc1ccccc1-c1ccc(C[C@H](NC(=O)C2CCCC2)C(=O)O)cc1 | 63 | –
7 | C[C@]1(C(=O)N[C@@H](Cc2ccc(-n3ccn(Cc4ccccc4)c3=O)cc2)C(=O)O)CCCO1 | 4.1 | –
8 | COc1ccccc1-c1ccc(C[C@H](NC(=O)[C@@H]2CCCN2)C(=O)O)cc1 | 11 | –
9 | COc1ccccc1-c1ccc(C[C@H](NC(=O)C2(C)CCCO2)C(=O)O)cc1 (stereo partly specified) | – | IC50 (Integrin alpha-4/beta-1 [5]): 3.9 nM; bioavailability [4]: 72%
10 | COc1cccc(OC)c1-c1ccc(C[C@H](NC(=O)[C@@]2(C)CCCO2)C(=O)O)cc1 | – | IC50 (Integrin alpha-4/beta-1 [5]): 0.3 nM; bioavailability [2]: 42%; bioavailability [3]: 42%
11 | COc1ccccc1-c1ccc(C[C@H](NC(=O)N2CCC=N2)C(=O)O)cc1 | 19.3 | –
12 | C[C@]1(C(=O)N[C@@H](Cc2ccc(-c3ccccc3C#N)cc2)C(=O)O)CCCO1 | 11 | –
13 | COc1ccccc1-c1ccc(C[C@@H](NC(=O)[C@@]2(C)CCCO2)C(=O)O)cc1 | – | IC50 (Integrin alpha-4/beta-1 [5]): 2.7 nM; bioavailability [2]: 57%; bioavailability [3]: 57%

Now from value to molecule, other results behind:

Row | IC50 (Integrin alpha-4/beta-1 [1]) [nM] | Compound | also measured
14 | 0.88 | COc1ccccc1-c1ccc(C[C@H](NC(=O)N2CCCN2S(=O)(=O)c2cc(Cl)cc(Cl)c2)C(=O)O)cc1 | –
15 | 1.3 | COc1ccccc1-c1ccc(C[C@H](NC(=O)C2(C)CCCS2(=O)=O)C(=O)O)cc1 (stereo partly specified) | bioavailability [4]: 6%
16 | 1.7 | COc1ccccc1-c1ccc(C[C@H](NC(=O)C2CCCO2)C(=O)O)cc1 (stereo partly specified) | –
17 | 0.2 | C[C@]1(C(=O)N[C@@H](Cc2ccc(NC(=O)c3c(Cl)cncc3Cl)cc2)C(=O)O)CCCO1 | –
18 | 2.4 | C[C@]1(C(=O)N[C@@H](Cc2ccc(-c3c(OC4CC4)cccc3OC3CC3)cc2)C(=O)O)CCCO1 | –
19 | 2.1 | COc1ccccc1-c1ccc(C[C@H](NC(=O)C2CCCS2(=O)=O)C(=O)O)cc1 (stereo partly specified) | –
20 | 3.9 | C[C@]1(C(=O)N[C@@H](Cc2ccc(-c3ccccc3OC3CC3)cc2)C(=O)O)CCCO1 | bioavailability [2]: 76%; bioavailability [3]: 76%
21 | 2.8 | COc1ccccc1-c1ccc(C[C@H](NC(=O)C2CCC(=O)N2)C(=O)O)cc1 (stereo partly specified) | –
